Measurements reported in article PMC7397249, “Properly Substituted Cyclic Bis-(2-bromobenzylidene) Compounds Behaved as Dual p300/CARM1 Inhibitors and Induced Apoptosis in Cancer Cells” (Molecules, 2020).

Assays:
[1] = target: T1, PCAF (Homo sapiens, UniProt Q92831); experiment: HotSpot HAT activity assay, PCAF; format: biochemical; details: 10-dose, from 200 μM; histone H3, [acetyl-3H]-acetyl-CoA
T1 construct: PCAF (aa 492–658, 250 nM); purchased Reaction Biology Corporation
Procedure: (§1) The newly synthesized compounds 4a–n were tested to determine their effects against acetylation and methylation epigenetic targets. First, 4a–n were screened in vitro against the two HAT enzymes p300 and PCAF. […] To determine the activity against SIRT1 and -2, 4a–n were tested starting from 200 μM solutions using a modified Fluor de Lys fluorescence-based assay with amino acids 379–382 (Arg-His-Lys-Lys(Ac)) of human p53 conjugated with aminomethylcoumarin as substrate and NAD^+ as co-substrate. […] Furthermore, 4a–n were tested against a human five-membered Polycomb repressive complex 2 (PRC2) containing EZH2, embryonic ectoderm development (EED), suppressor of zeste 12 (SUZ12), RbAp48, and adipocyte enhancer-binding protein (AEBP2), to assess their capability to inhibit the catalytic unit EZH2.
(§2) The effect of tested derivatives on the catalytic activity of p300 and PCAF was determined in a HotSpot HAT activity assay by Reaction Biology Corporation (Malvern, PA, USA) according to the company’s standard operating procedure. In brief, the recombinant catalytic domains of PCAF (aa 492–658, 250 nM) or p300 (aa 1284–1673, 30 nM) were incubated with histone H3 as substrate (5 µM) and [Acetyl-^3H]-Acetyl Coenzyme A (3 µM) as an acetyl donor in reaction buffer (50 mM Tris-HCl (pH 8.0), 50 mM NaCl, 0.1 mM EDTA, 1 mM DTT, 1 mM PMSF, 1% DMSO) for 1 h at 30 °C in the presence or absence of a dose titration of the compounds. The reaction mixture was delivered to filter-paper for detection. IC50 values were analyzed using Excel and GraphPad Prism 6.0 software (GraphPad Software Inc., San Diego, CA, USA). The experiments for p300 were performed in triplicate.

[2] = target: T2, p300 (Homo sapiens, UniProt Q09472); experiment: HotSpot HAT activity assay, p300; format: biochemical; details: 10-dose, triplicate, from 200 μM; histone H3, [acetyl-3H]-acetyl-CoA
T2 construct: p300 (aa 1284–1673, 30 nM); purchased Reaction Biology Corporation
T2 sequence (Q09472 1284-1673): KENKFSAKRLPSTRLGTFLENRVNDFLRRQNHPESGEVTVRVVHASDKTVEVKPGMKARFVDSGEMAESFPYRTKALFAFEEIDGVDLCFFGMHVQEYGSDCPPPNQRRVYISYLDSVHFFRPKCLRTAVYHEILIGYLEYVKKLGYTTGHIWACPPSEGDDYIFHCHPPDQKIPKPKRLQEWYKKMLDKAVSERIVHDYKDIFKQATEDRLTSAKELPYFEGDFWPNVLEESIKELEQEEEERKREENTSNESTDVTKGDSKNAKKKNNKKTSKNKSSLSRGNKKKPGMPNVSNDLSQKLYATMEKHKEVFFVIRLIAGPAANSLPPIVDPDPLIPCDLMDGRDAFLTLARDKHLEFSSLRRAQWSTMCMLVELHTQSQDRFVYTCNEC
Procedure: as §1, §2

[3] = target: T3, CARM1 (Homo sapiens, UniProt Q86X55); experiment: CARM1 assay (histone H3, 3H-SAM); format: biochemical
T3 sequence (Q86X55 1-608): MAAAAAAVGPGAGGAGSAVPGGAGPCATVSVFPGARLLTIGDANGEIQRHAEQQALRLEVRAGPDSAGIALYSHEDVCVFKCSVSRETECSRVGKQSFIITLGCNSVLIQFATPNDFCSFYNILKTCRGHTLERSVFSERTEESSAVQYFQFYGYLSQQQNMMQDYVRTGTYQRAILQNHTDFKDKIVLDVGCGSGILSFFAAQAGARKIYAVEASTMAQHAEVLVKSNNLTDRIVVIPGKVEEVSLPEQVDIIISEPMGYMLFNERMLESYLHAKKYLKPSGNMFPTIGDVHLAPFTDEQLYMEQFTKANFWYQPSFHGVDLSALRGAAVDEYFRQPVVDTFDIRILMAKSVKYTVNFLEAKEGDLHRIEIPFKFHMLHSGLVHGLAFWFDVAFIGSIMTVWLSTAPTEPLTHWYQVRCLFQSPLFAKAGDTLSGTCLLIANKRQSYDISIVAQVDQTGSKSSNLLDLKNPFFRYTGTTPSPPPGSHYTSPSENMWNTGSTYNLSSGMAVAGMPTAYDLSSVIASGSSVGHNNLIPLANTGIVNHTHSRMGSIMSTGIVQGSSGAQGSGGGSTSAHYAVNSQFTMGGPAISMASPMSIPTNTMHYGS
Procedure: Histone H3 (5 μM) was added in freshly prepared reaction buffer (50 mM Tris-HCl (pH 8.5), 5 mM MgCl2, 50 mM NaCl, 0.01% Brij35, 1 mM DTT, 1% DMSO). CARM1 was delivered into the substrate solution and the mixture was mixed gently. Afterwards, the tested compounds dissolved in DMSO were delivered into the enzyme/substrate reaction mixture by using Acoustic Technology (Echo 550, LabCyte Inc. Sunnyvale, CA) in nanoliter range, and 1 µM ^3H-SAM was also added into the reaction mixture to initiate the reaction. The reaction mixture was incubated for 1 h at 30 °C and then it was delivered to filter-paper for detection. The data were analyzed using Excel and GraphPad Prism software for IC50 curve fits. The experiments were performed in triplicate.

[4] = target: T4, SIRT2 (Homo sapiens, UniProt Q8IXJ6); experiment: Modified Fluor de Lys fluorescence-based assay, SIRT2; format: biochemical; details: from 200 μM; p53 379-382 AMC substrate, NAD+
T4 construct: host or cells: E. coli
T4 sequence (Q8IXJ6 whole entry): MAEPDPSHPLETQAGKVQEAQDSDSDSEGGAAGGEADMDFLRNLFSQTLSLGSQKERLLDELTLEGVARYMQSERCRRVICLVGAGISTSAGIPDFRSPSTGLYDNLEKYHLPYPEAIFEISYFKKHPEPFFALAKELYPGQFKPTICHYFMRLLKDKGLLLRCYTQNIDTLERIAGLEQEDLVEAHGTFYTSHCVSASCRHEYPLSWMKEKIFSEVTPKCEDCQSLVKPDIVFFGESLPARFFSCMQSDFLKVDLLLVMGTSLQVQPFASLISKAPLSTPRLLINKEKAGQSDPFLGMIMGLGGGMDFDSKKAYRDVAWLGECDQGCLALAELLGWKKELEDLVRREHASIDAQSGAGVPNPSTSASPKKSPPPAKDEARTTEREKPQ
Procedure: as §1
(§3) The SIRT inhibition assay was performed using human recombinant SIRT1 and SIRT2 produced in E. coli. Compounds were tested using a modified Fluor de Lys fluorescence-based assay kit based on the method described in the BioMol product sheet (AK-555, AK-556, Milan, Italy). […] The second stage is initiated by the addition of the Developer II (KI176), including nicotinamide (NAM), nicotinamide that stops the SIRT1/2 activity, and the fluorescent signal is produced. The fluorescence was measured on a fluorometric reader (Infinite 200 TECAN, Männedorf, Switzerland) with excitation set at 360 nm and emission detection set at 460 nm.

[5] = target: T5, SIRT1 (Homo sapiens, UniProt Q96EB6); experiment: Modified Fluor de Lys fluorescence-based assay, SIRT1; format: biochemical; details: from 200 μM; p53 379-382 AMC substrate, NAD+
T5 construct: host or cells: E. coli
T5 sequence (Q96EB6 whole entry): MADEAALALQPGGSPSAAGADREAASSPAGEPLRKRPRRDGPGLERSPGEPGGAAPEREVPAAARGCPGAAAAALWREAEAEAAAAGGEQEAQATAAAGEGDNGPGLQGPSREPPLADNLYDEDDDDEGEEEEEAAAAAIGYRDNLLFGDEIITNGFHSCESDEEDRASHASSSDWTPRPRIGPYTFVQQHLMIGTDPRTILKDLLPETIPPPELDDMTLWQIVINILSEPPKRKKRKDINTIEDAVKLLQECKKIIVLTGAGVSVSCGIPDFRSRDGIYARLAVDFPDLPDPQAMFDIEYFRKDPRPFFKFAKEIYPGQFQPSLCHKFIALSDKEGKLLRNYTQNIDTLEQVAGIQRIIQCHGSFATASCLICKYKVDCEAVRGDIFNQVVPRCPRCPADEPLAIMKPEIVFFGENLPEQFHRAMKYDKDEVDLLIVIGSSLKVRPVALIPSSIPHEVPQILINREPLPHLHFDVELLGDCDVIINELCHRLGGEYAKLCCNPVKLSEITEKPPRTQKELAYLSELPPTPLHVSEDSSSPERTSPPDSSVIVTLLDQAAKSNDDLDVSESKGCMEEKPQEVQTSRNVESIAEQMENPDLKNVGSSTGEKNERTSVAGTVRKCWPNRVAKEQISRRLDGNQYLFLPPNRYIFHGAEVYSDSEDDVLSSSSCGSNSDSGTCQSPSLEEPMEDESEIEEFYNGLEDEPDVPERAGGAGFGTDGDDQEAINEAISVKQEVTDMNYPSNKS
Procedure: as §1, §3

[6] = target: PRC2/EZH2 (Homo sapiens, UniProt Q15910); experiment: EZH2/PRC2 assay (core histone, 3H-SAM); format: biochemical; details: 10-dose, duplicate, from 400 μM
Sequence of PRC2/EZH2 (Q15022 whole entry): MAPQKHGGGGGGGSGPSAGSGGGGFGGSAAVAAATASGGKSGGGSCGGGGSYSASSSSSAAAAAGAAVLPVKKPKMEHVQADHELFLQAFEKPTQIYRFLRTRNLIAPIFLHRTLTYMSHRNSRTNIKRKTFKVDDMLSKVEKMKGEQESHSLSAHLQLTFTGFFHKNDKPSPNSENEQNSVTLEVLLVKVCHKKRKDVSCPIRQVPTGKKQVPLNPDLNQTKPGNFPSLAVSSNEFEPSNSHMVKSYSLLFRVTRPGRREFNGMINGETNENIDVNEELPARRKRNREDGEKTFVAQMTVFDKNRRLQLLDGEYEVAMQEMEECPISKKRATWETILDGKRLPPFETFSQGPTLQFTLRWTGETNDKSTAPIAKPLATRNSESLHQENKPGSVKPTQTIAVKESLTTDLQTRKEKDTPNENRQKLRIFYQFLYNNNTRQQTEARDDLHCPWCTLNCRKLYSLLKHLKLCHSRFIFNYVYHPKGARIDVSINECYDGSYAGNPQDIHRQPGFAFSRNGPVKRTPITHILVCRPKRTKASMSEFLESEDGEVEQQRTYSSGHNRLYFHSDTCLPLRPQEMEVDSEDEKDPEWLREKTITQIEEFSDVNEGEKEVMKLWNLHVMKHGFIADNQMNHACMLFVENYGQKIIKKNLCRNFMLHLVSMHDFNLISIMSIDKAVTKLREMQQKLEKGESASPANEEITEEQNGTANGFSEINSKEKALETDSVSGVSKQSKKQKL
Sequence of PRC2/EZH2 (Q09028 whole entry, further chain): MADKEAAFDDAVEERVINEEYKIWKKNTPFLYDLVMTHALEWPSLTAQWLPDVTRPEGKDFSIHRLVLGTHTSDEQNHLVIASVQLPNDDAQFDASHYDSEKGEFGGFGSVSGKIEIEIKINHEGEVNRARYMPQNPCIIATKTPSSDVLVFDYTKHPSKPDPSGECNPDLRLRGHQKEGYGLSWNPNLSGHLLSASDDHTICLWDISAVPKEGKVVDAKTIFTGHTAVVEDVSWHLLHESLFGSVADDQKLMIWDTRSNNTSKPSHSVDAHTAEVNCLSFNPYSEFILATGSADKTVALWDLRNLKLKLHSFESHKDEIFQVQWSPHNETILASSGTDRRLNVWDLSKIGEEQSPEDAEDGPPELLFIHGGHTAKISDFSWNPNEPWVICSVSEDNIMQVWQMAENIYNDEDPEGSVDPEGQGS
Sequence of PRC2/EZH2 (Q6ZN18 whole entry, further chain): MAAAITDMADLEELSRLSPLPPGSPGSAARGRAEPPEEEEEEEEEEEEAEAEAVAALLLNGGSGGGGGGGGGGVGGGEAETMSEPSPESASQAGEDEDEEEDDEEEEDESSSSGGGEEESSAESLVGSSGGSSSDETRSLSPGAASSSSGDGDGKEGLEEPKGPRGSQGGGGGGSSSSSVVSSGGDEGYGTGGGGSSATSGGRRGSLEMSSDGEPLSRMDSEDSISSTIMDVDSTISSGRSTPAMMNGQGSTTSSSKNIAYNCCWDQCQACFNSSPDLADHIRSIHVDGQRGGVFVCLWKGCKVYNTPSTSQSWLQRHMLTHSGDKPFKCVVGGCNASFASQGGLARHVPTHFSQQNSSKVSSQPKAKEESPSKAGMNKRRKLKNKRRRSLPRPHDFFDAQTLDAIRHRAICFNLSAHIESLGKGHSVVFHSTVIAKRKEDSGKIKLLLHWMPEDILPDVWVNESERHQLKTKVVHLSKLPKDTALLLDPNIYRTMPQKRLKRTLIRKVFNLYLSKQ
Sequence of PRC2/EZH2 (Q15910 whole entry): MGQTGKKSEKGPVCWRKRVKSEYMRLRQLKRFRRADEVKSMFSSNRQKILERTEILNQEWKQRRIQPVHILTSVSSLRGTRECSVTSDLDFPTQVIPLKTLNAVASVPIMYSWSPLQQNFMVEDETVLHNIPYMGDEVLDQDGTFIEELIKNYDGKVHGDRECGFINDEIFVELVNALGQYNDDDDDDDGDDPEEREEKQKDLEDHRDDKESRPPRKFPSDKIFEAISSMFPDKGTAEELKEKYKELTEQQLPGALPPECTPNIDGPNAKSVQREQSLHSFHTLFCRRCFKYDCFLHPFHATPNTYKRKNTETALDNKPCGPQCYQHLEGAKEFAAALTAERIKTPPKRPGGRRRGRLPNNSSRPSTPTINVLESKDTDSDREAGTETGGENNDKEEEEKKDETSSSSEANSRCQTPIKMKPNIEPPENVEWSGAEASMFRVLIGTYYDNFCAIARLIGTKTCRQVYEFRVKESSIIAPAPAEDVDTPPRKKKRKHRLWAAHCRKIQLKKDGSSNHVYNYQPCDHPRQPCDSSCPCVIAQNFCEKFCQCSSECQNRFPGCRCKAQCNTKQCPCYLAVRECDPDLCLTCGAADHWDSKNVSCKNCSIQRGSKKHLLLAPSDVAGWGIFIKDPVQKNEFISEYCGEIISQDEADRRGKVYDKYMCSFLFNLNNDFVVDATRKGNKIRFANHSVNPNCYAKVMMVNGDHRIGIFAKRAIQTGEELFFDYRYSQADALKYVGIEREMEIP
Sequence of PRC2/EZH2 (O75530 whole entry, further chain): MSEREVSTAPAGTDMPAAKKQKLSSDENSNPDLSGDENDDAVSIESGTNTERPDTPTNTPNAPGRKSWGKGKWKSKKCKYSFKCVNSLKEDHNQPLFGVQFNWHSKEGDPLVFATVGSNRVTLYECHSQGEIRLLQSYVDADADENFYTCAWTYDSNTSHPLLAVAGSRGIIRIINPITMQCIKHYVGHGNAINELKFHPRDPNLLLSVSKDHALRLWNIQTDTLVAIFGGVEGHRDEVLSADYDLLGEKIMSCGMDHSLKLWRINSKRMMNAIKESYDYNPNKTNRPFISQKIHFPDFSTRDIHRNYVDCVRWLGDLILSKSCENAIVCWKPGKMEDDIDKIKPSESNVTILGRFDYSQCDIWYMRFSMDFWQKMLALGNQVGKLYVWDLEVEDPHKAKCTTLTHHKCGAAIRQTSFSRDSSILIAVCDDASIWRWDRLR
Procedure: as §1
The EZH2 substrate (0.05 mg/mL core histone) was added in the freshly prepared reaction buffer (50 mM Tris-HCl (pH 8.0), 50 mM NaCl, 1 mM EDTA, 1 mM DTT, 1 mM PMSF, 1% DMSO). The PRC2 complex (complex of human EZH2, human EED, human SUZ12, human AEBP2, and human RbAp48) was delivered into the substrate solution and the mixture was mixed gently. Afterwards, the tested compounds dissolved in DMSO were delivered into the enzyme/substrate reaction mixture by using Acoustic Technology (Echo 550, LabCyte Inc. Sunnyvale, CA, USA) in nanoliter range, and ^3H-SAM was added into the reaction mixture to initiate the reaction. The reaction mixture was incubated for 1 h at 30 °C and then it was delivered to filter-paper for detection. The data were analyzed using Excel and GraphPad Prism software for IC50 curve fits. The experiments were performed in duplicate.

[7] = test system: p300; experiment: Western blot of acetylation marks (p300 inhibition) in MCF-7 cells; format: cell-based, human; details: 5 μM, 30 h
Procedure: (§4) In MCF-7 cells, the levels of acetyl-H3, acetyl-H4, H3K27me3, and H3R17me2 were detected by western blot analyses as functional tests for p300 (acH3 and acH4), EZH2 (H3K27me3) and CARM1 (H3R17me2) inhibition in cells, respectively (Figure 5).
(§5) The procedures were performed as described in [30, 31]. Primary antibodies used were: Ac-H3 (Millipore, Milan, Italy); Ac-H4 (Millipore, Milan, Italy); Ac-H3K9-14 (Diagenode, Ougrée, Belgium); Ac-α-tubulin (Sigma-Aldrich), H3K27me3 (Diagenode); H3R17me2 (Diagenode); EZH2 (Abcam, Cambridge, UK). H3 (Sigma-Aldrich), H4 (Abcam), GAPDH (Sigma) and ERKs (Santa Cruz, Biotechnology, TX, USA) were used to normalize the total protein extracts (see also Supplementary Material).

[8] = test system: CARM1; experiment: Western blot of H3R17me2 (CARM1) in MCF-7 cells; format: cell-based, human; details: 5 μM, 30 h
Procedure: as §4, §5

[9] = test system: MCF-7 cells; experiment: Cell cycle and apoptosis (sub-G1) analysis by FACS in MCF-7 cells; format: cell-based, human; details: 5 μM, 30 h
Procedure: (§6) Compounds 4a–n were tested at 5 μM for 30 h in NB4 […] and U937 AML cells among hematological cancers, and in MCF-7 breast cancer and SH-SY5Y neuroblastoma cells among solid cancers, to determine their effects in cell cycle and apoptosis induction.
(§7) In the same cell lines, the induction of apoptosis has been evaluated through the percentage of the sub-G1 peaks.
(§8) For colorimetric exclusion, the cells (2 × 10^5 cells/mL) were plated in multiwells in triplicate. After stimulations at different times and concentrations, cells were diluted in the ratio 1:1 in Trypan Blue (Sigma) and counted with an optical microscope. For cell cycle analyses, cells were plated (2 × 10^5 cells/mL) and were harvested, centrifuged at 1200 rpm for 5 min and resuspended in 500 μL of a hypotonic solution containing 1× PBS, Sodium Citrate 0.1%, 0.1% NP-40, RNAase A and […] Propidium Iodide (PI). After 30 min at room temperature (RT) in the dark, samples were acquired by FACS-Calibur (BD Bioscences, San Jose, CA, USA) using CellQuest software (BD Biosciences). The percentage in different phases of the cell cycle was determined by ModFit LT V3 software (Verity). All experiments were performed in triplicate. Cell death was measured as percentage of cells in sub-G1 phase as in [30].

[10] = test system: NB4 cells; experiment: Cell cycle and apoptosis (sub-G1) analysis by FACS in NB4 cells; format: cell-based, human; details: 5 μM, 30 h
Procedure: as §6, §7, §8

[11] = test system: p300 HAT; details: cited from earlier work
[12] = test system: EZH2; details: cited from earlier work
[13] = target: T3, CARM1; set-up: method as in PMID 21612300; details: cited from earlier work
[14] = test system: SET7; set-up: method as in PMID 21612300; details: cited from earlier work
[15] = test system: PRMT1; set-up: method as in PMID 21612300; details: cited from earlier work

T1 sequence (Q92831 492-658): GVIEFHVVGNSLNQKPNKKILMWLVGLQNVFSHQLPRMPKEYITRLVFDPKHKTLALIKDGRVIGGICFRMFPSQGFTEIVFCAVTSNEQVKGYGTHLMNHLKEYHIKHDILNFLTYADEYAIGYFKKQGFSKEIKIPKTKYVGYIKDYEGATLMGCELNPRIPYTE

Structure (SMILES) | IC50 [1] | IC50 [2] | IC50 [3] | IC50 [4] | IC50 [5] | IC50 [6] | cell cycle: block in G1/S phase with almost total absence of cells in the G2/M phase [9] | further results
CCCCCCCCCCCCCCCc1cccc(O)c1C(=O)O [anacardic acid, reference compound] | 40 ± 10.9 µM | – | – | – | – | – | – | –
O=C1/C(=C/c2ccccc2Br)COC/C1=C\c1ccccc1Br [Compound 4b, 3,5-bis((E)-2-bromobenzylidene)tetrahydro-4H-pyran-4-one] | > 200 µM | 2.56 ± 0.23 µM | 23.3 ± 0.5 µM | > 200 µM | > 200 µM | – | – | –
O=C1/C(=C/c2ccccc2Br)CN(CCC(=O)c2ccccc2)C/C1=C\c1ccccc1Br [Compound 4i, 3,5-Bis((E)-2-bromobenzylidene)-1-(3-oxo-3-phenylpropyl)piperidin-4-one] | > 200 µM | 1.57 ± 0.72 µM | 6.96 ± 0.9 µM | > 200 µM | > 200 µM | 60.6 ± 10.5 µM | – | levels of acetyl-H4 [7]: decrease of the acetylation levels; levels of acetyl-α-tubulin [7]: decrease of the acetylation levels; melting point: 95 to 97 °C; levels of H3R17me2 [8]: most effective
CN1C/C(=C\c2ccccc2Br)C(=O)/C(=C/c2ccccc2Br)C1 [Compound 4d, 3,5-bis((E)-2-bromobenzylidene)-1-methylpiperidin-4-one] | > 200 µM | 2.66 ± 0.15 µM | 3.24 ± 1.22 µM | > 200 µM | > 200 µM | 46.7 ± 1.1 µM | almost total absence of cells | induction of apoptosis, % sub-G1 peaks [10]: 30 to 40%
O=C1/C(=C/c2ccccc2Br)CCC/C1=C\c1ccccc1Br [Compound 4a, 2,6-bis((E)-2-bromobenzylidene)cyclohexan-1-one] | > 200 µM | 1.38 ± 0.24 µM | 16.8 ± 3.4 µM | > 200 µM | > 200 µM | 117 ± 6 µM | almost total absence of cells | –
O=C1/C(=C/c2cccc(Br)c2)CN(Cc2ccccc2)C/C1=C\c1cccc(Br)c1 [Compound 3, 1-benzyl-3,5-bis((E)-3-bromobenzylidene)piperidin-4-one] | – | – | – | – | – | – | – | p300 inhibition (in words) [11]: dual p300/EZH2 inhibitor; EZH2 inhibition (in words) [12]: dual p300/EZH2 inhibitor
O=C1/C(=C/c2ccccc2Br)CNC/C1=C\c1ccccc1Br [Compound 4c, 3,5-bis((E)-2-bromobenzylidene)piperidin-4-one] | > 200 µM | 23.2 ± 0.51 µM | 44.8 ± 6 µM | > 200 µM | > 200 µM | – | almost total absence of cells | –
O=C1/C(=C/c2ccc(O)c(Br)c2)CN(Cc2ccccc2)C/C1=C\c1ccc(O)c(Br)c1 [Compound 2] | – | – | – | – | – | – | – | p300 HAT inhibition (active/inactive) [11]: inactive; EZH2 inhibition (active/inactive) ([12]; ref unpublished results): active; CARM1 inhibition (active/inactive) [13]: active; SET7 inhibition (active/inactive) [14]: inactive; PRMT1 inhibition (active/inactive) [15]: inactive
